Like-named read-outs stand apart in the source and are kept apart here.
What was measured:
Assay type in all cases: binding
[1] = molecular target: CDK11B/Cyclin L2 (Homo sapiens, UniProt P21127); assay: NanoBRET live-cell target engagement, CDK11B-NanoLuc/Cyclin L2 in HEK-293; conditions: read-out: CDK11b/L2 Inhibition at 10µM (%), 10µM
[2] = molecular target: CDK16/Cyclin Y (Homo sapiens, UniProt Q00536); assay: NanoBRET live-cell target engagement, CDK16-NanoLuc/Cyclin Y in HEK-293; conditions: for IC50: read-out: CDK16/Y IC50; for inhibition at 10 µM: read-out: CDK16/Y Inhibition at 10µM (%), 10µM
[3] = molecular target: CDK1/Cyclin E1 (Homo sapiens, UniProt P06493); assay: NanoBRET live-cell target engagement, CDK1-NanoLuc/Cyclin E1 in HEK-293; conditions: for inhibition at 10 µM: read-out: CDK1/E1 Inhibition at 10µM (%); for IC50: read-out: CDK1/E1 IC50
[4] = molecular target: CDK5/CDK5R1 (Homo sapiens, UniProt Q00535); assay: NanoBRET live-cell target engagement, CDK5-NanoLuc/CDK5R1 in HEK-293; conditions: for inhibition at 10 µM: read-out: CDK5/CDK5R1 Inhibition at 10µM (%); for IC50: read-out: CDK5/CDK5R1 IC50
[5] = molecular target: CDK6/Cyclin D1 (Homo sapiens, UniProt Q00534); assay: NanoBRET live-cell target engagement, NanoLuc-CDK6/Cyclin D1 in HEK-293; conditions: for inhibition at 10 µM: read-out: CDK6/D1 Inhibition at 10µM (%); for CDK6 Occupancy (%): Panel A
[6] = molecular target: CDK4/Cyclin D1 (Homo sapiens, UniProt P11802); assay: NanoBRET live-cell target engagement, NanoLuc-CDK4/Cyclin D1 in HEK-293; conditions: for inhibition at 10 µM: read-out: CDK4/D1 Inhibition at 10µM (%); for IC50: read-out: CDK4/D1 IC50
[7] = molecular target: CDK9/Cyclin K (Homo sapiens, UniProt P50750); assay: NanoBRET live-cell target engagement, NanoLuc-CDK9/Cyclin K in HEK-293; conditions: 10µM, read-out: CDK9/K Inhibition at 10µM (%)
[8] = molecular target: CDK18/Cyclin Y (Homo sapiens, UniProt Q07002); assay: NanoBRET live-cell target engagement, CDK18-NanoLuc/Cyclin Y in HEK-293; conditions: for IC50: read-out: CDK18/Y IC50; for inhibition at 10 µM: read-out: CDK18/Y Inhibition at 10µM (%), 10µM
[9] = molecular target: CDK14/Cyclin Y (Homo sapiens, UniProt O94921); assay: NanoBRET live-cell target engagement, CDK14-NanoLuc/Cyclin Y in HEK-293; conditions: for inhibition at 10 µM: read-out: CDK14/Y Inhibition at 10µM (%), 10µM
[10] = molecular target: CDK20/Cyclin H (Homo sapiens, UniProt Q8IZL9); assay: NanoBRET live-cell target engagement, NanoLuc-CDK20/Cyclin H in HEK-293; conditions: read-out: CDK20/H Inhibition at 10µM (%), 10µM
[11] = molecular target: CDK17/Cyclin Y (Homo sapiens, UniProt Q00537); assay: NanoBRET live-cell target engagement, CDK17-NanoLuc/Cyclin Y in HEK-293; conditions: read-out: CDK17/Y IC50
Sequence of CDK17/Cyclin Y (Q00537 whole entry): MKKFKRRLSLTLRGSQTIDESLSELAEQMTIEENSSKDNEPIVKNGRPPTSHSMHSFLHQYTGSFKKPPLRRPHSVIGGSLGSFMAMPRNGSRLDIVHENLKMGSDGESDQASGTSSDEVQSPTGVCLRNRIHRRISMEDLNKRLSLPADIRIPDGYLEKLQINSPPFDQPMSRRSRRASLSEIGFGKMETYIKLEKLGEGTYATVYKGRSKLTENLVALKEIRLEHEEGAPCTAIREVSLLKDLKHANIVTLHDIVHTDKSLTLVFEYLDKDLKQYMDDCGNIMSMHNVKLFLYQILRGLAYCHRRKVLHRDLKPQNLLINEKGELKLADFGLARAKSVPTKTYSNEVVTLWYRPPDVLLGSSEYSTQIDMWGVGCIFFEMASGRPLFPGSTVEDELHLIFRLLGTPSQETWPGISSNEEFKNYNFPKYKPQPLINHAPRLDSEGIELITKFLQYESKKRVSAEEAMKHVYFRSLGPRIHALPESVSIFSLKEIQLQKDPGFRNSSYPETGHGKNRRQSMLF
Sequence of CDK17/Cyclin Y (Q8ND76 whole entry partner): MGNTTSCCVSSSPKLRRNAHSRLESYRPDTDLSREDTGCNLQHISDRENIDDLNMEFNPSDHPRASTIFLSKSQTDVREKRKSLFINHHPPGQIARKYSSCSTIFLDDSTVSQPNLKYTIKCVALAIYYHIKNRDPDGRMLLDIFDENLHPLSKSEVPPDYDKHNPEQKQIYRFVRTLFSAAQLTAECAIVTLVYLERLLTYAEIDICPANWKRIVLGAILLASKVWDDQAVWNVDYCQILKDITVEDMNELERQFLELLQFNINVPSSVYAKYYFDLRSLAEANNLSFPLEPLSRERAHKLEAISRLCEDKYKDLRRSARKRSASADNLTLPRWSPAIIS

Sequence of CDK18/Cyclin Y (Q07002 whole entry): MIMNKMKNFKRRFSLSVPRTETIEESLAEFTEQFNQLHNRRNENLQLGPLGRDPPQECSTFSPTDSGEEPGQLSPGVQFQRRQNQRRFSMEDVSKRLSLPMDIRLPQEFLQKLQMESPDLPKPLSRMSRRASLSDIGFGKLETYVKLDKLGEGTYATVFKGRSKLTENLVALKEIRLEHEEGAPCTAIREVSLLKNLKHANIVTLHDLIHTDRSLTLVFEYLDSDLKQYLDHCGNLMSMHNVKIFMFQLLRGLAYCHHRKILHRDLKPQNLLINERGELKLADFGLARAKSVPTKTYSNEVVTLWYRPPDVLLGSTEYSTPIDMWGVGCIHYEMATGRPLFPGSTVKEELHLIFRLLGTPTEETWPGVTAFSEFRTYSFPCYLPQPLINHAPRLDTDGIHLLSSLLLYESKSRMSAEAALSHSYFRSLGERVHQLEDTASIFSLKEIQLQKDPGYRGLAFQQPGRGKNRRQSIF
Sequence of CDK18/Cyclin Y (Q8ND76 whole entry partner): as the sequence (Q8ND76 whole entry partner) above
Sequence of CDK1/Cyclin E1 (P06493 whole entry): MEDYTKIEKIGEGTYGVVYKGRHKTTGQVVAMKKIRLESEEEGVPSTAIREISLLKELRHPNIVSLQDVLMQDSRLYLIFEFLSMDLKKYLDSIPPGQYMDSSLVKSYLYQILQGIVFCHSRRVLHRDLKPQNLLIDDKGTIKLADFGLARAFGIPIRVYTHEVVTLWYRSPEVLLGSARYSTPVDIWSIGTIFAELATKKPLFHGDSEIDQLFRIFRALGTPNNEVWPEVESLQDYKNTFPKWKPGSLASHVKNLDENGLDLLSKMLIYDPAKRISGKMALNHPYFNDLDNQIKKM
Sequence of CDK1/Cyclin E1 (P24864 whole entry partner): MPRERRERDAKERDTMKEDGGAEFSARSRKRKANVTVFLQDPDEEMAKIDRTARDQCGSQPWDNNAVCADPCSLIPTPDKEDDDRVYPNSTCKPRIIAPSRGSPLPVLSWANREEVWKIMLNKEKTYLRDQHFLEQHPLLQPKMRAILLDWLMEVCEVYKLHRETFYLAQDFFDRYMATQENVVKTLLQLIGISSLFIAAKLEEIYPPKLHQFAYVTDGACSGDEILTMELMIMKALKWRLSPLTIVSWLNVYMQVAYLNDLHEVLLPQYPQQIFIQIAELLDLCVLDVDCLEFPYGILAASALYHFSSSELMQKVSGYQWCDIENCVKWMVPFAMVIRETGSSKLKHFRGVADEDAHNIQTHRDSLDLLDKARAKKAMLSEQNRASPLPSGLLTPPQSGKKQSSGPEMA
Sequence of CDK16/Cyclin Y (Q00536 whole entry): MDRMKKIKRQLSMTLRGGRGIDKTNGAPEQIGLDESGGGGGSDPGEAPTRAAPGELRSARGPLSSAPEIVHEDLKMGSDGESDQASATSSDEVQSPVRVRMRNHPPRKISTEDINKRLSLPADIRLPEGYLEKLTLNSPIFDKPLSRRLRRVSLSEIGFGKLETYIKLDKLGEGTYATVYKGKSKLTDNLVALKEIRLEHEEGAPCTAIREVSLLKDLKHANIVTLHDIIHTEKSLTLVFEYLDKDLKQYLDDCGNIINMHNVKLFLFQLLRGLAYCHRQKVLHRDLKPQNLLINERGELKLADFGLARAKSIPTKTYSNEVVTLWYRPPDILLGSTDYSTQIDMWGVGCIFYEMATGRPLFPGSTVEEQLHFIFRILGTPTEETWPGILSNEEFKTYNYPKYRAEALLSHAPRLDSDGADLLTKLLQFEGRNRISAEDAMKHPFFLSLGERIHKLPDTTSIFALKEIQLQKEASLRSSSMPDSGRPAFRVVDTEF
Sequence of CDK16/Cyclin Y (Q8ND76 whole entry partner): as the sequence (Q8ND76 whole entry partner) above
Sequence of CDK5/CDK5R1 (Q00535 whole entry): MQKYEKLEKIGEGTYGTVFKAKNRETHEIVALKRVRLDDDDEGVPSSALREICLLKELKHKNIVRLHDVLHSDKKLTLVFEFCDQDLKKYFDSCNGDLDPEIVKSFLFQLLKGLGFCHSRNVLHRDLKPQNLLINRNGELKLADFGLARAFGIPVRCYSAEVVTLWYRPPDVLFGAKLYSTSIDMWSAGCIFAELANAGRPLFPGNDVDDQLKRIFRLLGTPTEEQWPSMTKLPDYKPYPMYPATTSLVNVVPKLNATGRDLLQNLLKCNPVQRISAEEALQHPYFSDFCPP
Sequence of CDK5/CDK5R1 (Q15078 whole entry partner): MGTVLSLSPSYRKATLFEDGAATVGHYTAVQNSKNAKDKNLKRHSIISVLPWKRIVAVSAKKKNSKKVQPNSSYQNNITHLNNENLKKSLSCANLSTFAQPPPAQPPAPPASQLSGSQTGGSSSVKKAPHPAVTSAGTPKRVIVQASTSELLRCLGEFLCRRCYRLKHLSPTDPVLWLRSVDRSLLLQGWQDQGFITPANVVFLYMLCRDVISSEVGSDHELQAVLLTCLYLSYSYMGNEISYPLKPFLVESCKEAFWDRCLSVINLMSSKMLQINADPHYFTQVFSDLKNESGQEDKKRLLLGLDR
Sequence of CDK14/Cyclin Y (O94921 whole entry): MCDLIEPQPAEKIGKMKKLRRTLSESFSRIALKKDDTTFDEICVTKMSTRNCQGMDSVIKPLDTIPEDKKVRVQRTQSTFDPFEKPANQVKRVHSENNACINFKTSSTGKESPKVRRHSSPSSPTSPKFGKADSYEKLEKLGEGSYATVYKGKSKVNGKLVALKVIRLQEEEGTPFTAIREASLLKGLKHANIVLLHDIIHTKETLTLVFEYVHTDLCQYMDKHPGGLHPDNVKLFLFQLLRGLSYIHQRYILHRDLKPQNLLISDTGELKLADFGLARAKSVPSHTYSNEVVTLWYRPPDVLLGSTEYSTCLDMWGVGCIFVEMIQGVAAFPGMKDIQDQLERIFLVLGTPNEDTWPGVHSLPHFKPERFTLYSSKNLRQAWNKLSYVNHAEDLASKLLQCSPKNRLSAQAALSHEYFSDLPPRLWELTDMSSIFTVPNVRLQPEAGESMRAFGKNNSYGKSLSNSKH
Sequence of CDK14/Cyclin Y (Q8ND76 whole entry partner): as the sequence (Q8ND76 whole entry partner) above
Sequence of CDK6/Cyclin D1 (Q00534 whole entry): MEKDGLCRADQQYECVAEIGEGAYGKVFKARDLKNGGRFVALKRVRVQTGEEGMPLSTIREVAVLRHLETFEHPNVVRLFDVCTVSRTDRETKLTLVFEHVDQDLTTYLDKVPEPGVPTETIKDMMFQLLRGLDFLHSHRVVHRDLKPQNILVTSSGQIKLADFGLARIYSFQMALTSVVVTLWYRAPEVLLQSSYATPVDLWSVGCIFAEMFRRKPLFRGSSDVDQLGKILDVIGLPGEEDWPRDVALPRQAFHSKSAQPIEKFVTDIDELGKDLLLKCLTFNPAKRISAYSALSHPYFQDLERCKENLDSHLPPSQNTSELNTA
Sequence of CDK6/Cyclin D1 (P24385 whole entry partner): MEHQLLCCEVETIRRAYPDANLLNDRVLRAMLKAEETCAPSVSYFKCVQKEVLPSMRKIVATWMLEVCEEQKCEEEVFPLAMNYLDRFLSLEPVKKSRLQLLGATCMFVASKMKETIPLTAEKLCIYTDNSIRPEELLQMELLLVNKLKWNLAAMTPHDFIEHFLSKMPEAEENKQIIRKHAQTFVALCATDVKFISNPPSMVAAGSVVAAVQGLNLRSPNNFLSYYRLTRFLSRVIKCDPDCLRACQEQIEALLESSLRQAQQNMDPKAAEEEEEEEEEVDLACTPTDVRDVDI
Sequence of CDK4/Cyclin D1 (P11802 whole entry): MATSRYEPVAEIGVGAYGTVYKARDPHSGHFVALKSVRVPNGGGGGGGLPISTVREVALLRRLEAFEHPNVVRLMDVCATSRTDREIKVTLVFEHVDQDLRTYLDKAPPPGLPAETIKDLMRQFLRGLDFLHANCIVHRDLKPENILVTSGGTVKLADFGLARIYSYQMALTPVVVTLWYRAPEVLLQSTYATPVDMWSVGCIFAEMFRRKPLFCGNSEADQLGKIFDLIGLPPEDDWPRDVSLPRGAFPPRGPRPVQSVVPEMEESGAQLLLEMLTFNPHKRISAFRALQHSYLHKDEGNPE
Sequence of CDK4/Cyclin D1 (P24385 whole entry partner): as the sequence (P24385 whole entry partner) above

`COCCN1CCN(Cc2ccc(-c3n[nH]c4c3C(=O)c3c(NC(=O)NN5CCOCC5)cccc3-4)cc2)CC1` [RGB286638] was tested, and the inhibition at 10 µM ([1]; average of experiments) was 32.6%, the inhibition at 10 µM ([1]; independent experiment 1) was 19.9% and the inhibition at 10 µM ([1]; independent experiment 2) was 45.2%. The IC50 ([2]; average (± SEM where n=3)) was 5.2 nM, the IC50 ([2]; independent experiment 1) was 5.4 nM and the IC50 ([2]; independent experiment 2) was 5 nM. For the same molecule, the inhibition at 10 µM ([2]; independent experiment 1) was 95.2%, the inhibition at 10 µM ([2]; independent experiment 2) was 92.3% and the inhibition at 10 µM ([3]; average of experiments) was 87.9%. The inhibition at 10 µM ([3]; independent experiment 1) was 79.8%, the inhibition at 10 µM ([3]; independent experiment 2) was 96% and the IC50 ([3]; average (± SEM where n=3)) was 39 nM. For the same molecule, the IC50 ([3]; independent experiment 1) was 37 nM, the IC50 ([3]; independent experiment 2) was 41 nM and the inhibition at 10 µM ([4]; average of experiments) was 84.4%. The inhibition at 10 µM ([4]; independent experiment 1) was 71.7%, the inhibition at 10 µM ([4]; independent experiment 2) was 97.2% and the IC50 ([4]; average (± SEM where n=3)) was 75 nM. For the same molecule, the IC50 ([4]; independent experiment 1) was 80 nM, the IC50 ([4]; independent experiment 2) was 70 nM and the inhibition at 10 µM ([5]; average of experiments) was 99.1%. For the same molecule, the inhibition at 10 µM ([5]; independent experiment 1) was 98.9%, the inhibition at 10 µM ([5]; independent experiment 2) was 99.4% and the “CDK6 Occupancy (%)” value ([5]; LOG10([RGB-286638]) 0.045757 LOG10(µM)) was 96.3121%. The “CDK6 Occupancy (%)” value ([5]; LOG10([RGB-286638]) 0.522879 LOG10(µM)) was 95.6738%, the “CDK6 Occupancy (%)” value ([5]; LOG10([RGB-286638]) 1 LOG10(µM)) was 95.6028% and the “CDK6 Occupancy (%)” value ([5]; LOG10([RGB-286638]) -0.43136 LOG10(µM)) was 95.1064%. The “CDK6 Occupancy (%)” value ([5]; LOG10([RGB-286638]) -0.90849 LOG10(µM)) was 90.4255%, the “CDK6 Occupancy (%)” value ([5]; LOG10([RGB-286638]) -1.38561 LOG10(µM)) was 76.8794% and the “CDK6 Occupancy (%)” value ([5]; LOG10([RGB-286638]) -1.86273 LOG10(µM)) was 49.6454%. For the same molecule, the “CDK6 Occupancy (%)” value ([5]; LOG10([RGB-286638]) -2.33985 LOG10(µM)) was 19.8582%, the “CDK6 Occupancy (%)” value ([5]; LOG10([RGB-286638]) -2.81697 LOG10(µM)) was 7.0922% and the “CDK6 Occupancy (%)” value ([5]; LOG10([RGB-286638]) -3.29409 LOG10(µM)) was 2.128%. For the same molecule, the “CDK6 Occupancy (%)” value ([5]; LOG10([RGB-286638]) -3.77121 LOG10(µM)) was 0%, the IC50 ([5]; average (± SEM where n=3), read-out: CDK6/D1 IC50) was 12 ± 1 nM and the IC50 ([5]; independent experiment 1, read-out: CDK6/D1 IC50) was 13 nM. For the same molecule, the IC50 ([5]; independent experiment 2, read-out: CDK6/D1 IC50) was 9.7 nM, the IC50 ([5]; independent experiment 3, read-out: CDK6/D1 IC50) was 14 nM and the IC50 ([5]; live HEK-293, 2 h, mean ± S.E.M. (n=3) or mean (n=2), read-out: IC50 for CDK/cyclin complexes, CDK6/D1) was 12 to 16 nM. It also gave an inhibition at 10 µM ([6]; average of experiments) of 99.8%, an inhibition at 10 µM ([6]; independent experiment 1) of 99.7% and an inhibition at 10 µM ([6]; independent experiment 2) of 100%. It also gave an IC50 ([6]; average (± SEM where n=3)) of 10 nM, an IC50 ([6]; independent experiment 1) of 9.6 nM and an IC50 ([6]; independent experiment 2) of 11 nM. It also gave an inhibition at 10 µM ([7]; average of experiments) of 94.7%, an inhibition at 10 µM ([7]; independent experiment 1) of 90.7% and an inhibition at 10 µM ([7]; independent experiment 2) of 98.8%. It also gave an IC50 ([8]; average (± SEM where n=3)) of 10 nM, an IC50 ([8]; independent experiment 1) of 8.6 nM and an IC50 ([8]; independent experiment 2) of 11 nM. For the same molecule, the inhibition at 10 µM ([8]; average of experiments) was 99.6%, the inhibition at 10 µM ([8]; independent experiment 1) was 97.4% and the inhibition at 10 µM ([8]; independent experiment 2) was 102%. The IC50 ([9]; average (± SEM where n=3), read-out: CDK14/Y IC50) was 31 nM, the IC50 ([9]; independent experiment 1, read-out: CDK14/Y IC50) was 30 nM and the IC50 ([9]; independent experiment 2, read-out: CDK14/Y IC50) was 31 nM. The IC50 ([9]; live HEK-293, 2 h, mean ± S.E.M. (n=3) or mean (n=2), read-out: IC50 for CDK/cyclin complexes, CDK14/Y) was 31 nM, the inhibition at 10 µM ([9]; average of experiments) was 95.9% and the inhibition at 10 µM ([9]; independent experiment 1) was 94.1%. For the same molecule, the inhibition at 10 µM ([9]; independent experiment 2) was 97.8%, the inhibition at 10 µM ([10]; independent experiment 1) was 46% and the inhibition at 10 µM ([10]; independent experiment 2) was 84.3%. For the same molecule, the IC50 ([11]; average (± SEM where n=3)) was 6.6 nM, the IC50 ([11]; independent experiment 1) was 7.9 nM and the IC50 ([11]; independent experiment 2) was 5.3 nM.

From PMC7265341, “Quantifying CDK inhibitor selectivity in live cells” (Nature Communications, 2020)
